In ChEMBL document CHEMBL3044541, “Control of crown rot-causing fungal pathogens of banana by inorganic salts and a surfactant” (Crop Prot, 2007):
Activity calls are given as the source filed them. The calls are words filed in the database; no cut-off is given here.

Experiments:
[1] = tested on: Fusarium verticillioides; assay: Growth inhibition of Fusarium verticillioides assessed as inhibition of mycelial growth up to 160 g/l incubated for 15 min followed by compound washout measured after 7 days in absence of surfactant APSA 80; type: functional
[2] = tested on: Colletotrichum musae; assay: Growth inhibition of Colletotrichum musae assessed as inhibition of mycelial growth up to 160 g/l incubated for 15 min followed by compound washout measured after 7 days in absence of surfactant APSA 80; type: functional
[3] = tested on: Thielaviopsis paradoxa; assay: Growth inhibition of Ceratocystis paradoxa assessed as inhibition of mycelial growth up to 160 g/l incubated for 15 min followed by compound washout measured after 7 days in presence of surfactant APSA 80; type: functional
[4] = tested on: Lasiodiplodia theobromae; assay: Growth inhibition of Lasiodiplodia theobromae assessed as inhibition of mycelial growth up to 160 g/l incubated for 15 min followed by compound washout measured after 7 days in absence of surfactant APSA 80; type: functional, organism-based
[5] = tested on: Fusarium verticillioides; assay: Antifungal activity against Fusarium verticillioides infected Cavendish banana fruit assessed as reduction in crown rot incubated for 15 min followed by compound washout measured after 3 weeks in presence of surfactant APSA 80 relative to control; type: functional; parameters: concentration or dose not given beside the values; details: pooled result: one value given for 4 cell lines, strains, targets or settings
[6] = tested on: Fusarium verticillioides; assay: Antifungal activity against Fusarium verticillioides infected Cavendish banana fruit assessed as reduction in crown rot incubated for 15 min followed by compound washout measured after 3 weeks in absence of surfactant APSA 80 relative to control; type: functional; parameters: concentration or dose not given beside the values; details: pooled result: one value given for 4 cell lines, strains, targets or settings
[7] = tested on: Fusarium verticillioides; assay: Antifungal activity against Fusarium verticillioides infected Cavendish banana fruit assessed as reduction in crown rot incubated for 15 min followed by compound washout measured after 2 weeks in presence of surfactant APSA 80 relative to control; type: functional; parameters: concentration or dose not given beside the values
[8] = tested on: Colletotrichum musae; assay: Antifungal activity against Colletotrichum musae infected Cavendish banana fruit assessed as reduction in crown rot incubated for 15 min followed by compound washout measured after 2 weeks in presence of surfactant APSA 80 relative to control; type: functional; parameters: concentration or dose not given beside the values
[9] = tested on: Thielaviopsis paradoxa; assay: Antifungal activity against Ceratocystis paradoxa infected Cavendish banana fruit assessed as reduction in crown rot incubated for 15 min followed by compound washout measured after 2 weeks in presence of surfactant APSA 80 relative to control; type: functional; parameters: concentration or dose not given beside the values
[10] = tested on: Lasiodiplodia theobromae; assay: Antifungal activity against Lasiodiplodia theobromae infected Cavendish banana fruit assessed as reduction in crown rot incubated for 15 min followed by compound washout measured after 2 weeks in presence of surfactant APSA 80 relative to control; type: functional; parameters: concentration or dose not given beside the values
[11] = tested on: Fusarium verticillioides; assay: Antifungal activity against Fusarium verticillioides infected Cavendish banana fruit assessed as reduction in crown rot incubated for 15 min followed by compound washout measured after 2 weeks in absence of surfactant APSA 80 relative to control; type: functional; parameters: concentration or dose not given beside the values
[12] = tested on: Colletotrichum musae; assay: Antifungal activity against Colletotrichum musae infected Cavendish banana fruit assessed as reduction in crown rot incubated for 15 min followed by compound washout measured after 2 weeks in absence of surfactant APSA 80 relative to control; type: functional; parameters: concentration or dose not given beside the values
[13] = tested on: Thielaviopsis paradoxa; assay: Antifungal activity against Ceratocystis paradoxa infected Cavendish banana fruit assessed as reduction in crown rot incubated for 15 min followed by compound washout measured after 2 weeks in absence of surfactant APSA 80 relative to control; type: functional; parameters: concentration or dose not given beside the values
[14] = tested on: Lasiodiplodia theobromae; assay: Antifungal activity against Lasiodiplodia theobromae infected Cavendish banana fruit assessed as reduction in crown rot incubated for 15 min followed by compound washout measured after 2 weeks in absence of surfactant APSA 80 relative to control; type: functional; parameters: concentration or dose not given beside the values
[15] = tested on: Fusarium verticillioides; assay: Antifungal activity against Fusarium verticillioides infected Cavendish banana fruit assessed as reduction in crown rot incubated for 15 min followed by compound washout measured after 1 week in presence of surfactant APSA 80 relative to control; type: functional; parameters: concentration or dose not given beside the values
[16] = tested on: Colletotrichum musae; assay: Antifungal activity against Colletotrichum musae infected Cavendish banana fruit assessed as reduction in crown rot incubated for 15 min followed by compound washout measured after 1 week in presence of surfactant APSA 80 relative to control; type: functional; parameters: concentration or dose not given beside the values
[17] = tested on: Thielaviopsis paradoxa; assay: Antifungal activity against Ceratocystis paradoxa infected Cavendish banana fruit assessed as reduction in crown rot incubated for 15 min followed by compound washout measured after 1 week in presence of surfactant APSA 80 relative to control; type: functional; parameters: concentration or dose not given beside the values
[18] = tested on: Lasiodiplodia theobromae; assay: Antifungal activity against Lasiodiplodia theobromae infected Cavendish banana fruit assessed as reduction in crown rot incubated for 15 min followed by compound washout measured after 1 week in presence of surfactant APSA 80 relative to control; type: functional; parameters: concentration or dose not given beside the values
[19] = tested on: Fusarium verticillioides; assay: Antifungal activity against Fusarium verticillioides infected Cavendish banana fruit assessed as reduction in crown rot incubated for 15 min followed by compound washout measured after 1 week in absence of surfactant APSA 80 relative to control; type: functional; parameters: concentration or dose not given beside the values
[20] = tested on: Colletotrichum musae; assay: Antifungal activity against Colletotrichum musae infected Cavendish banana fruit assessed as reduction in crown rot incubated for 15 min followed by compound washout measured after 1 week in absence of surfactant APSA 80 relative to control; type: functional; parameters: concentration or dose not given beside the values
[21] = tested on: Thielaviopsis paradoxa; assay: Antifungal activity against Ceratocystis paradoxa infected Cavendish banana fruit assessed as reduction in crown rot incubated for 15 min followed by compound washout measured after 1 week in absence of surfactant APSA 80 relative to control; type: functional; parameters: concentration or dose not given beside the values
[22] = tested on: Lasiodiplodia theobromae; assay: Antifungal activity against Lasiodiplodia theobromae infected Cavendish banana fruit assessed as reduction in crown rot incubated for 15 min followed by compound washout measured after 1 week in absence of surfactant APSA 80 relative to control; type: functional; parameters: concentration or dose not given beside the values
[23] = tested on: Fusarium verticillioides; assay: Antifungal activity against Fusarium verticillioides assessed as reduction in colony diameter at 10 to 160 g/l incubated for 15 min followed by compound washout measured after 7 days in absence of surfactant APSA 80 relative to control; type: functional; parameters: scale not given: the % may be the effect or the level left
[24] = tested on: Colletotrichum musae; assay: Antifungal activity against Colletotrichum musae assessed as reduction in colony diameter at 10 to 160 g/l incubated for 15 min followed by compound washout measured after 7 days in absence of surfactant APSA 80 relative to control; type: functional; parameters: scale not given: the % may be the effect or the level left
[25] = tested on: Thielaviopsis paradoxa; assay: Antifungal activity against Ceratocystis paradoxa assessed as reduction in colony diameter at 10 to 160 g/l incubated for 15 min followed by compound washout measured after 7 days in absence of surfactant APSA 80 relative to control; type: functional; parameters: scale not given: the % may be the effect or the level left
[26] = tested on: Lasiodiplodia theobromae; assay: Antifungal activity against Lasiodiplodia theobromae assessed as reduction in colony diameter at 10 to 160 g/l incubated for 15 min followed by compound washout measured after 7 days in absence of surfactant APSA 80 relative to control; type: functional; parameters: scale not given: the % may be the effect or the level left
[27] = tested on: Fusarium verticillioides; assay: Antifungal activity against Fusarium verticillioides assessed as reduction in colony diameter at 10 to 160 g/l incubated for 15 min followed by compound washout measured after 7 days in presence of surfactant APSA 80 relative to control; type: functional; parameters: scale not given: the % may be the effect or the level left
[28] = tested on: Colletotrichum musae; assay: Antifungal activity against Colletotrichum musae assessed as reduction in colony diameter at 10 to 160 g/l incubated for 15 min followed by compound washout measured after 7 days in presence of surfactant APSA 80 relative to control; type: functional; parameters: scale not given: the % may be the effect or the level left
[29] = tested on: Thielaviopsis paradoxa; assay: Antifungal activity against Ceratocystis paradoxa assessed as reduction in colony diameter at 10 to 160 g/l incubated for 15 min followed by compound washout measured after 7 days in presence of surfactant APSA 80 relative to control; type: functional; parameters: scale not given: the % may be the effect or the level left
[30] = tested on: Lasiodiplodia theobromae; assay: Antifungal activity against Lasiodiplodia theobromae assessed as reduction in colony diameter at 10 to 160 g/l incubated for 15 min followed by compound washout measured after 7 days in presence of surfactant APSA 80 relative to control; type: functional; parameters: scale not given: the % may be the effect or the level left
[31] = tested on: Colletotrichum musae; assay: Antifungal activity against Colletotrichum musae assessed as inhibition of conidium germination at 5 g/l incubated for 15 min followed by compound washout measured after 2 days by microscopic analysis in absence of surfactant APSA 80; type: functional, organism-based

| SMILES | Activity [1] | Activity [2] | Activity [3] | Activity [5] [%] | Activity [6] [%] | Activity [7] [%] | Activity [8] [%] | Activity [9] [%] | Activity [10] [%] | Activity [11] [%] | Activity [12] [%] | Activity [13] [%] | Activity [14] [%] | Activity [15] [%] | Activity [16] [%] | Activity [17] [%] | Activity [18] [%] | Activity [19] [%] | Activity [20] [%] | Activity [21] [%] | further results |
| --- | --- | --- | --- | --- | --- | --- | --- | --- | --- | --- | --- | --- | --- | --- | --- | --- | --- | --- | --- | --- | --- |
| [Cl-].[Na+] [SODIUM CHLORIDE] | inactive | inactive | inactive | 0 | -5 | 10 | 10 | 10 | 10 | 0 | 0 | 0 | 0 | 0 | 0 | 0 | 0 | 0 | 0 | 0 | Activity [4]: inactive; Activity [22]: 0%; Activity [23]: 83%; Activity [24]: 83%; Activity [25]: 71%; Activity [26]: 90%; Activity [27]: 79%; Activity [28]: 93%; Activity [29]: 84%; Activity [30]: 94% |
| [Ca+2].[Cl-].[Cl-] [CALCIUM CHLORIDE] | inactive | inactive | inactive | 58 | 42 | 50 | 50 | 50 | 50 | 0 | 0 | 0 | 0 | 0 | 0 | 0 | 0 | 0 | 0 | 0 | inhibition [31]: Active; Activity [4]: inactive; Activity [22]: 0%; Activity [23]: 5%; Activity [24]: 0%; Activity [25]: 28%; Activity [26]: 35%; Activity [27]: 53%; Activity [28]: 62%; Activity [29]: 56%; Activity [30]: 87% |
| [Na+].[O-]Cl [SODIUM HYPOCHLORITE] | 50 g/L | 30 g/L | 90 g/L | 47 | 61 | 50 | 50 | 50 | 50 | 50 | 50 | 50 | 50 | 0 | 0 | 0 | 0 | 0 | 0 | 0 | inhibition [31]: Active; Activity [22]: 0%; Activity [23]: 0%; Activity [24]: 13%; Activity [25]: 18%; Activity [26]: 40%; Activity [27]: 51%; Activity [28]: 78%; Activity [29]: 67%; Activity [30]: 92% |
